# From patent publication US20220324770A1, “NITRIFICATION INHIBITORS” (The University of Melbourne, priority 2019, published 2022)
# Legend:
# [1] = ranging from no effect; cited from earlier work
# [2] = tested on: South Johnstone soil; test: Soil thin-layer chromatography (TLC) leaching study, South Johnstone soil; type: physicochemical; details: for Detected Inhibitor (%): South Johnstone soil TLC
# Protocol: TLC plates were prepared based on methods described in the literature (Helling, C. S., Turner, B. C, Science 1968, 162, 562-563; Mohammad, A., Jabeen, N., JPC—Journal of Planar Chromatography—Modern TLC 2003, 16, 137-143). Masking tape (3 layers, ˜[…] total thickness) was used to outline three columns (4 cm W×12 cm H) on a glass TLC plate (20×20 cm). A slurry of freshly ground soil in distilled H2O (˜2:3 m/v) was then poured onto the prepared plate and spread evenly using a glass rod. Once even, the plate was dried overnight in an oven at 35° C. Careful removal of the masking tape afforded the TLC plate ready for sample application.
# (§1) Samples of DMP (the active core of DMPP) or Compound 16 (˜1 mg) dissolved in acetone (100 μL) were pipetted in a straight line across the soil, 2 cm above the base of the plate. Application band thickness was kept under 0.5 cm. After 30 mins of drying time, the TLC plate was developed inside a glass developing chamber with distilled H2O (depth of 0.5 cm) until the solvent front reached the top of the soil (˜1 hr). […] The plate was then allowed to air dry overnight.
# Once dry, the plate was divided into six horizontal bands corresponding to Rf values of: (1) <0.05 (baseline), (2) 0.05 to 0.25, (3) 0.25 to 0.45, (4) 0.45 to 0.65, (5) 0.65 to 0.85, and (6) 0.85 to 1. In sequence, soil in each band was carefully scraped off the glass backing and collected in vials. Special care was taken to avoid cross-contamination between soil of different bands, and the separate channels.
# Individual soil bands collected from the TLC plate were extracted as follows: • 1. Addition of an aqueous solution of CaCl2/MgSO4 (0.01M and 0.45M respectively, 2 mL). • 2. Sonication for 5 minutes then manual shaking for 30 seconds. • 3. Addition of methyl-tert-butyl ether (MTBE, 2 mL) then manual shaking for 30 seconds. • 4. Sonication for 10 minutes then manual shaking for 30 seconds. • 5. Rested until soil began to settle, then frozen overnight at −20° C. • 6. After partial defrosting, the ethereal extract was filtered through nylon syringe filters (FilterBio®, 13 mm diameter, 0.45 µm pore size).
# The filtered ethereal extracts (450 μL) were spiked with 50 μL of a standard solution of either cyclododecanone in MTBE (1.97 mg/mL, for DMP-treated samples) or cyclooctanone in MTBE (6.37 mg/mL, for 16-treated samples). Samples were then directly analysed by GC-MS (method: 70° C. for 5 mins, then ramp 10° C./min to 250° C., hold at 250° C. for 17 mins [total run time=40 minutes]) to analyse the presence or absence of the inhibitor in each soil band.
# GC-MS peak areas calculated for the standards cyclooctanone (Rt=9.1 mins) and cyclododecanone (Rt=15.8 mins) were compared to those calculated for Compound 16 (Rt=13.9 mins) and DMP (Rt=7.6 mins) respectively, for each soil sample extract where inhibitor was detected as follows:
# As each treatment was run in triplicate, mean values are reported for detected inhibitor percentages for each Rf band, with errors presented as the standard deviation.
# as §1, with “the DCD” for “DMP (the active core of DMPP) or Compound 16”, “methanol (300” for “acetone (100”, “in” for “with”
# Individual soil bands collected from the TLC plate were extracted as follows: • 1. Addition of methanol (2 mL). • 2. Manual shaking for 30 seconds following sonication for 15 minutes. • 3. Once soil began to settle, the methanolic extract was filtered through nylon syringe filters (FilterBio®, 13 mm diameter, 0.45 µm pore size). • 4. 300 μL of the methanolic extracts were evaporated under nitrogen flow, and then the residues was taken up in ultrapure acetonitrile (1 mL). • 5. […]
smiles,measurement,setting,value
"Cc1c[nH]nc1C.O=P(O)(O)O [DMPP, 3,4-dimethylpyrazole phosphate, reference compound]",inhibition in field studies for reducing leaching and N2O emissions,[1],≤ 70%
"CCCc1cn(CCC)nn1 [Compound 16, 1,4-dipropyl-1H-1,2,3-triazole]",Detected Inhibitor (%),[2]; Rf 0.05-0.25,1 ± 1%
same,Detected Inhibitor (%),[2]; Rf 0.25-0.45,5 ± 6%
same,Detected Inhibitor (%),[2]; Rf 0.45-0.65,34 ± 5%
same,Detected Inhibitor (%),[2]; Rf 0.65-0.85,49 ± 9%
same,Detected Inhibitor (%),[2]; Rf 0.85-1,11 ± 3%
same,leaching tendency (conclusion),[2]; acidic soils,lower-to-similar leaching tendencies to DCD
